Experimental findings from ChEMBL document CHEMBL1125803 (J Med Chem, 1991) are described below.

Assay [1] deals with T1, Human immunodeficiency virus type 1 protease (Human immunodeficiency virus 1, UniProt Q72874). As to the kind of experiment: (§1) Binding activity against HIV-1 Protease.
The target of assay [2] is T1, Human immunodeficiency virus type 1 protease. Described as §1. The source holds these as a separate data set.

The structures appear in SMILES notation. Numbered stars: 1 amine (or outer) side, 2 acyl side, 3 side chain; on linkers, the order of the positions; unused ones are H or OH. Square brackets hold non-standard residues; d marks the D form. Peptide text beside a SMILES is read from it. X1 = O=C([C@@H]1CCCN1CC(O)[C@H](Cc1ccccc1)N[*:1])[*:2]

As to `CC[C@H](C)[C@H](NC(=O)C1CC2CCCCC2CN1C[C@@H](O)[C@H](Cc1ccccc1)NC(=O)[C@H](CC(N)=O)NC(=O)OCc1ccccc1)C(=O)N[C@H](C(=O)OC)C(C)C` (stereo partly drawn), the IC50 in assay [1] and in assay [2] was above 100 nM throughout.

As to `CC(C)(C)NC(=O)C1CC2CCCCC2CN1C[C@@H](O)[C@H](Cc1ccccc1)NC(=O)[C@H](CC(N)=O)NC(=O)OCc1ccccc1` (stereo partly drawn), the IC50 in assay [1] and in assay [2] was below 2.7 nM throughout.

As to `CC(C)(C)OC(=O)[C@@H]1CCCN1C[C@H](O)[C@H](Cc1ccccc1)NC(=O)[C@H](CC(N)=O)NC(=O)OCc1ccccc1`, the IC50 in assay [1] and in assay [2] was 300 nM in each case.

As for `CC[C@H](C)[C@H](NC(=O)[C@@H]1CCCN1C[C@@H](O)[C@H](Cc1ccccc1)NC(=O)[C@H](CC(N)=O)NC(=O)OCc1ccccc1)C(=O)N[C@H](C(=O)OC)C(C)C`, the IC50 in assay [1] and in assay [2] was above 100 nM each time.

For `CC[C@H](C)[C@H](NC(=O)[C@@H]1CCCN1CC(O)[C@H](Cc1ccccc1)NC(=O)[C@H](CC(N)=O)NC(=O)[C@H](CC(C)C)NC(=O)[C@H](CO)NC(C)=O)C(=O)OC` (stereo partly drawn) (Ac-SLN[X1]I-OMe), the IC50 in assay [1] and in assay [2] was 420 nM throughout.

In the case of `CC[C@H](C)[C@H](NC(=O)[C@@H]1CCCN1C[C@H](O)[C@H](Cc1ccccc1)NC(=O)[C@H](CC(N)=O)NC(=O)OCc1ccccc1)C(=O)N[C@H](C(=O)OC)C(C)C`, the IC50 in assay [1] and in assay [2] was 13 nM in each case.

For `CC(C)(C)OC(=O)[C@@H]1CCCN1C[C@@H](O)[C@H](Cc1ccccc1)NC(=O)[C@H](CC(N)=O)NC(=O)OCc1ccccc1`, the IC50 in assay [1] and in assay [2] was 140 nM in each case.

As for `CC(C)(C)NC(=O)C1CC2CCCCC2CN1C[C@H](O)[C@H](Cc1ccccc1)NC(=O)[C@H](CC(N)=O)NC(=O)OCc1ccccc1` (stereo partly drawn), the IC50 in assay [1] and in assay [2] was above 100 nM throughout.

Consider `CC[C@H](C)[C@H](NC(=O)C1CC2CCCCC2CN1C[C@H](O)[C@H](Cc1ccccc1)NC(=O)[C@H](CC(N)=O)NC(=O)OCc1ccccc1)C(=O)N[C@H](C(=O)OC)C(C)C` (stereo partly drawn), for which the IC50 in assay [1] and in assay [2] was above 100 nM throughout.
